Test results from ChEMBL document CHEMBL1201862, “PubChem BioAssay data set” (2004).
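Each compound was tested at five concentrations against cells in 96-well plates for 48 hours. Abbreviation: GI50, concentration required for 50% inhibition of growth.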 Active and inactive are the calls of the source. No stated cut-off is given here; in the data, active = GI50 up to about 1.1 µM and inactive = higher.

Legend:
Assay in all cases: growth of human tumour cells (NCI), 48 h
HT-29 = test system: HT-29
Hs-578T = test system: Hs-578T
IGROV-1 = test system: IGROV-1
K562 = test system: K562
KM12 = test system: KM12
MDA-MB-435 = test system: MDA-MB-435
MDA-N = test system: MDA-N
MOLT-4 = test system: MOLT-4
NCI-H226 = test system: NCI-H226
OVCAR-5 = test system: OVCAR-5
OVCAR-8 = test system: OVCAR-8
PC-3 = test system: PC-3
SF-295 = test system: SF-295
SK-MEL-28 = test system: SK-MEL-28
SK-MEL-2 = test system: SK-MEL-2
SNB-19 = test system: SNB-19
SW-620 = test system: SW-620
UACC-257 = test system: UACC-257
NCI-H460 = test system: NCI-H460
SR = test system: SR

Compound | GI50 (HT-29) | GI50 (Hs-578T) | GI50 (IGROV-1) | GI50 (K562) | GI50 (KM12) | GI50 (MDA-MB-435) | GI50 (MDA-N) | GI50 (MOLT-4) | GI50 (NCI-H226) | GI50 (OVCAR-5) | GI50 (OVCAR-8) | GI50 (PC-3) | GI50 (SF-295) | GI50 (SK-MEL-28) | GI50 (SK-MEL-2) | GI50 (SNB-19) | GI50 (SW-620) | GI50 (UACC-257) | GI50 (NCI-H460) | GI50 (SR)
CCOC(=O)C(NC(=O)c1ccccc1)(Nc1cc(C)on1)C(F)(F)F (stereo not given) | > 100 µM (inactive) | > 100 µM (inactive) | > 100 µM (inactive) | > 100 µM (inactive) | > 100 µM (inactive) | > 100 µM (inactive) | > 100 µM (inactive) | > 100 µM (inactive) | > 100 µM (inactive) | > 100 µM (inactive) | > 100 µM (inactive) | > 100 µM (inactive) | > 100 µM (inactive) | > 100 µM (inactive) | > 100 µM (inactive) | > 100 µM (inactive) | > 100 µM (inactive) | > 100 µM (inactive) |  | 
CN(CC(=O)O)Cc1c(O)c(Cl)cc(Cl)c1Cl | 33.2 µM (inactive) | > 100 µM (inactive) | 48.1 µM (inactive) |  | 31.2 µM (inactive) | 74.8 µM (inactive) | 47.2 µM (inactive) |  | 22.8 µM (inactive) | 26.5 µM (inactive) | 29.2 µM (inactive) | 41.4 µM (inactive) | 64.9 µM (inactive) | 24.5 µM (inactive) | 27.2 µM (inactive) | 48.4 µM (inactive) | 40.5 µM (inactive) | 19.8 µM (inactive) | 5.13 µM (inactive) | 5.55 µM (inactive)
COC(=O)C1=C(C(=O)OC)C2OC1c1cc3ccccc3cc12 | 6.3 µM (inactive) | 18.2 µM (inactive) | 5.01 µM (inactive) |  | 23.7 µM (inactive) | 7.38 µM (inactive) | 6.62 µM (inactive) | 1.54 µM (inactive) | 5.15 µM (inactive) | 4.88 µM (inactive) | 4.49 µM (inactive) | 15.2 µM (inactive) | 18.8 µM (inactive) | 2 µM (inactive) | 15.4 µM (inactive) | 18.7 µM (inactive) | 1.96 µM (inactive) | 6.32 µM (inactive) | 22.2 µM (inactive) | 1.88 µM (inactive)
Fc1cccc(F)c1C(Nc1nncs1)Nc1nncs1 | 47.2 µM (inactive) | > 100 µM (inactive) | > 100 µM (inactive) | > 100 µM (inactive) | > 100 µM (inactive) | 51.3 µM (inactive) | 38 µM (inactive) |  | > 100 µM (inactive) | > 100 µM (inactive) | > 100 µM (inactive) | > 100 µM (inactive) | > 100 µM (inactive) | > 100 µM (inactive) | > 100 µM (inactive) | > 100 µM (inactive) | 86.7 µM (inactive) | > 100 µM (inactive) | > 100 µM (inactive) | 
CC(=O)O[C@@H]1[C@H]2[C@@H](OC(=O)c3ccccc3)[C@@H](C)C[C@]2(O)[C@H](OC(C)=O)[C@@]2(C)[C@@H]3CC(C)(C)C(=O)[C@]3(OC(C)=O)C[C@@]12C |  | 9.53 µM (inactive) | > 25 µM (inactive) |  | > 25 µM (inactive) | 13.8 µM (inactive) | 8.91 µM (inactive) | 2.09 µM (inactive) | > 25 µM (inactive) | > 25 µM (inactive) | 20.6 µM (inactive) | 17.7 µM (inactive) | 7 µM (inactive) |  | > 25 µM (inactive) | > 25 µM (inactive) | 24.3 µM (inactive) | > 25 µM (inactive) | 2.06 µM (inactive) | 20.7 µM (inactive)
CO/N=C1\CCC2(O)C3Cc4ccc(O)c5c4C2(CCN3CC2CC2)[C@H]1O5 (stereo not given in full) | > 100 µM (inactive) | > 100 µM (inactive) | > 100 µM (inactive) | > 100 µM (inactive) | > 100 µM (inactive) | > 100 µM (inactive) | > 100 µM (inactive) | > 100 µM (inactive) | > 100 µM (inactive) | > 100 µM (inactive) | > 100 µM (inactive) | > 100 µM (inactive) | > 100 µM (inactive) | > 100 µM (inactive) | > 100 µM (inactive) | > 100 µM (inactive) | > 100 µM (inactive) |  |  | > 100 µM (inactive)
C[C@H](CCC1=NCCN1)[C@H]1CC[C@H]2[C@@H]3[C@H](O)C[C@@H]4C[C@H](O)CC[C@]4(C)[C@H]3CC[C@]12C | 2.54 µM (inactive) | 12.4 µM (inactive) | 11.7 µM (inactive) | 6.3 µM (inactive) | 14.6 µM (inactive) | 13.7 µM (inactive) | 17.3 µM (inactive) | 11.1 µM (inactive) | 15 µM (inactive) | 14.5 µM (inactive) | 15.6 µM (inactive) | 8.85 µM (inactive) | 15.5 µM (inactive) | 14.2 µM (inactive) | 16.3 µM (inactive) | 13.4 µM (inactive) | 15.6 µM (inactive) | 15 µM (inactive) | 12 µM (inactive) | 
Cc1[nH]c2ncn3nc(C(Cl)(Cl)Cl)nc3c2c1Cc1ccccc1 | > 100 µM (inactive) | > 100 µM (inactive) | > 100 µM (inactive) |  | > 100 µM (inactive) | > 100 µM (inactive) | > 100 µM (inactive) | > 100 µM (inactive) | > 100 µM (inactive) | > 100 µM (inactive) | > 100 µM (inactive) | > 100 µM (inactive) | > 100 µM (inactive) | > 100 µM (inactive) | > 100 µM (inactive) | > 100 µM (inactive) | > 100 µM (inactive) | > 100 µM (inactive) | > 100 µM (inactive) | 
CCC1=CC2Cc3nc4cc(Cl)ccc4c(N)c3C(C1)C2 (stereo not given) | 3.02 µM (inactive) | 5.08 µM (inactive) | 2.72 µM (inactive) | 2.58 µM (inactive) | 5.78 µM (inactive) | 2.94 µM (inactive) | 6.08 µM (inactive) | 0.822 µM (active) | 1.48 µM (inactive) | 5.62 µM (inactive) | 12.8 µM (inactive) | 4.47 µM (inactive) | 4.45 µM (inactive) | 2.86 µM (inactive) | 5.45 µM (inactive) | 9.12 µM (inactive) | 8.91 µM (inactive) | 2.11 µM (inactive) | 4.07 µM (inactive) | 
COc1ccc(C(=O)C#Cc2cn(C3CC(O)C(CO)O3)c(=O)[nH]c2=O)cc1 (stereo not given) | > 100 µM (inactive) | 30.6 µM (inactive) | > 100 µM (inactive) | 36.5 µM (inactive) | > 100 µM (inactive) | 56.8 µM (inactive) | 60.3 µM (inactive) | 39.4 µM (inactive) | 32 µM (inactive) |  | > 100 µM (inactive) | > 100 µM (inactive) | > 100 µM (inactive) | 20.4 µM (inactive) | 56.4 µM (inactive) | > 100 µM (inactive) | 43.1 µM (inactive) | 94.8 µM (inactive) | > 100 µM (inactive) | 
COC(=O)C1=C(C)NC(CF)=C(C(=O)OC)C1c1cccc2c(=O)c3ccccc3oc12 (stereo not given) | 3.58 µM (inactive) | 9.62 µM (inactive) | 2.37 µM (inactive) | 4.06 µM (inactive) | 5.51 µM (inactive) | 3.15 µM (inactive) | 1.92 µM (inactive) | 5.89 µM (inactive) | > 100 µM (inactive) | > 100 µM (inactive) | 19.9 µM (inactive) | 2.69 µM (inactive) | 3.31 µM (inactive) | 16 µM (inactive) | 20.4 µM (inactive) |  | 1.73 µM (inactive) | 16.5 µM (inactive) | 4.48 µM (inactive) | 9.4 µM (inactive)
COc1ccc(Cc2c(N)[nH]c(=O)n(C)c2=O)cc1 | 47.5 µM (inactive) | 45.1 µM (inactive) | > 100 µM (inactive) | > 100 µM (inactive) | > 100 µM (inactive) | > 100 µM (inactive) | > 100 µM (inactive) |  | > 100 µM (inactive) | > 100 µM (inactive) | > 100 µM (inactive) | 97.3 µM (inactive) | > 100 µM (inactive) | > 100 µM (inactive) | > 100 µM (inactive) | > 100 µM (inactive) | > 100 µM (inactive) | > 100 µM (inactive) | 72.1 µM (inactive) | 
CC1(C)CN=C(Nc2cccc(C(F)(F)F)c2)S1 | > 100 µM (inactive) | > 100 µM (inactive) | > 100 µM (inactive) | > 100 µM (inactive) | > 100 µM (inactive) | > 100 µM (inactive) | > 100 µM (inactive) | > 100 µM (inactive) | > 100 µM (inactive) | > 100 µM (inactive) | > 100 µM (inactive) | > 100 µM (inactive) | > 100 µM (inactive) | > 100 µM (inactive) | > 100 µM (inactive) | > 100 µM (inactive) | > 100 µM (inactive) | > 100 µM (inactive) |  | 40.2 µM (inactive)
CC(C)(C)OC(=O)N1CCC[C@H]1CSC[C@@H]1CCCN1C(=O)OC(C)(C)C | 17.8 µM (inactive) | 27 µM (inactive) | 43.4 µM (inactive) | 24.5 µM (inactive) | 20.9 µM (inactive) | 20.7 µM (inactive) | 29.4 µM (inactive) | 16.7 µM (inactive) |  | 34.2 µM (inactive) | 29.3 µM (inactive) | 26.9 µM (inactive) | 30.8 µM (inactive) | 24.6 µM (inactive) | 18.3 µM (inactive) | 25.4 µM (inactive) | 30.3 µM (inactive) | 28.8 µM (inactive) | 34.3 µM (inactive) | 
COc1ccc(S(=O)(=O)NC(CCC(=O)NN)C(=O)NN)cc1 (stereo not given) | > 100 µM (inactive) | > 100 µM (inactive) | > 100 µM (inactive) | > 100 µM (inactive) | > 100 µM (inactive) | > 100 µM (inactive) | > 100 µM (inactive) | > 100 µM (inactive) |  | > 100 µM (inactive) | > 100 µM (inactive) | > 100 µM (inactive) | > 100 µM (inactive) | > 100 µM (inactive) | > 100 µM (inactive) | > 100 µM (inactive) | > 100 µM (inactive) | > 100 µM (inactive) | > 100 µM (inactive) | > 100 µM (inactive)
